US11339130B1 (Blade Therapeutics, Inc., priority 2016, dated 2022)
Counter-ions that a name gives are not always drawn. Like-named read-outs stand apart in the source and are kept apart here.

Tests used:
[1] = tested on: Calpain activity in SH-SY5Y cells (SBDP-150); experiment: SH-SY5Y Spectrin western blot assay (SBDP-150 breakdown product, A23187-induced); assay type: cell-based; conditions: Homo sapiens, SH-SY5Y cells, read-out: SH-SY5Y Spectrin IC50
Human Calpain 9/NS1 = molecular target: T1, Human Calpain 9/NS1 (Homo sapiens, UniProt O14815); experiment: Calpain inhibition continuous fluorescence (FRET) assay, Human Calpain 9/NS1; assay type: biochemical; conditions: read-out: Human Calpain 9/NS1 IC50
T1 sequence (O14815 1-690): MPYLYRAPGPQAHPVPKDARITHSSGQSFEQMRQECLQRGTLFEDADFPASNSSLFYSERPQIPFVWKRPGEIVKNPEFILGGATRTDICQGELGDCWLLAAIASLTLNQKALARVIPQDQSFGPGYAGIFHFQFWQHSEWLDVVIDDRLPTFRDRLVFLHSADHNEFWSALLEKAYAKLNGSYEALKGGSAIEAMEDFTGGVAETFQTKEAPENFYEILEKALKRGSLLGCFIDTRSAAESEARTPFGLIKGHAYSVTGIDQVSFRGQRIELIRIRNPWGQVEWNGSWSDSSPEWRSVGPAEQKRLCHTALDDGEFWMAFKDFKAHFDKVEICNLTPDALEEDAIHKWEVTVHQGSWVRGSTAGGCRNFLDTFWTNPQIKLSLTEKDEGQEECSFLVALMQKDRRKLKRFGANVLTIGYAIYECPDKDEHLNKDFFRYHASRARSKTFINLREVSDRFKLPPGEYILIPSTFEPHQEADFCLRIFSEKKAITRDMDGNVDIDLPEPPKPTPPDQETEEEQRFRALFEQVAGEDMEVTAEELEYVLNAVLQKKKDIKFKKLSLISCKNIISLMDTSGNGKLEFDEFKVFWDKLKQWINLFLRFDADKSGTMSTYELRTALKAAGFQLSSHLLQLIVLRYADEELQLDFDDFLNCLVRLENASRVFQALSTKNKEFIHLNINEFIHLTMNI
T1 sequence (P04632 1-268 partner): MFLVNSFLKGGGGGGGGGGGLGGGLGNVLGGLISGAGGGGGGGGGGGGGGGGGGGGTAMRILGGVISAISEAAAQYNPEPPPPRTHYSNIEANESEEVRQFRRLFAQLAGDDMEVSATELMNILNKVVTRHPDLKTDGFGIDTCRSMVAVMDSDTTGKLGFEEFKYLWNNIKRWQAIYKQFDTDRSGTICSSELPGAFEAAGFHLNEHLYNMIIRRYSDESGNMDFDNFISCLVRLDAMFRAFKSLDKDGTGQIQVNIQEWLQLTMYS
In short: (§1)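 Continuous FRET read (ex 490/em 520 nm, 10 min) of calpain 1, 2 or 9 cleaving an internally quenched 5-FAM peptide, triggered by substrate with CaCl2 after enzyme–inhibitor incubation at ambient 25 °C, pH 7.5 Tris/NaCl/DTT buffer. IC50 from initial rates (1-5 min) via 4-parameter fit.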

[2] = tested on: Calpain activity in SH-SY5Y cells; experiment: SH-SY5Y + AMC fluorescence assay (Suc-LLVY-AMC substrate); assay type: cell-based; conditions: read-out: SH-SY5Y + AMC IC50
Human Calpain 1/NS1 = molecular target: T2, Human Calpain 1/NS1 (Homo sapiens, UniProt P07384); experiment: Calpain inhibition continuous fluorescence (FRET) assay, Human Calpain 1/NS1; assay type: biochemical; conditions: read-out: Human Calpain 1/NS1 IC50
T2 sequence (P07384 1-714): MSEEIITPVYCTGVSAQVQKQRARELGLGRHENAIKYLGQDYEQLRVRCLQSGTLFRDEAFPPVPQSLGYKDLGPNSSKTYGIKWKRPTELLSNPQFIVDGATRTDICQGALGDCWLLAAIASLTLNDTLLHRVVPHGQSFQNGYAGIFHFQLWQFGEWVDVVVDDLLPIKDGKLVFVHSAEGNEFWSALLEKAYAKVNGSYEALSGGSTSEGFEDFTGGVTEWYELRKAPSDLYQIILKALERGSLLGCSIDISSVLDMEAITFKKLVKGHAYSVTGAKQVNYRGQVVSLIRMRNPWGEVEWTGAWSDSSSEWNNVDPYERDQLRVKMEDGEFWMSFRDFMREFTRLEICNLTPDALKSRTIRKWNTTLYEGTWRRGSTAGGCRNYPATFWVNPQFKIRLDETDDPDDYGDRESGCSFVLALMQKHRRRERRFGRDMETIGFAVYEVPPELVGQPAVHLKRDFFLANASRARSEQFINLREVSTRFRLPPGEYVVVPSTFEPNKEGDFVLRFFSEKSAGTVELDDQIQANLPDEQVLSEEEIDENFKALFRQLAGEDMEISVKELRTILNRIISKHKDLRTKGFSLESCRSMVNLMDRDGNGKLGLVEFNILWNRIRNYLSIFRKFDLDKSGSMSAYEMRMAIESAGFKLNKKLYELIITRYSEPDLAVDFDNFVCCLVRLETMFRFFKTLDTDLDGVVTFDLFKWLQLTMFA
T2 sequence (P04632 1-268 partner): T1 sequence (P04632 1-268 partner)
In short: as §1

Human Calpain 2/NS1 = molecular target: T3, Human Calpain 2/NS1 (Homo sapiens, UniProt P17655); experiment: Calpain inhibition continuous fluorescence (FRET) assay, Human Calpain 2/NS1; assay type: biochemical; conditions: read-out: Human Calpain 2/NS1 IC50
T3 sequence (P17655 1-700): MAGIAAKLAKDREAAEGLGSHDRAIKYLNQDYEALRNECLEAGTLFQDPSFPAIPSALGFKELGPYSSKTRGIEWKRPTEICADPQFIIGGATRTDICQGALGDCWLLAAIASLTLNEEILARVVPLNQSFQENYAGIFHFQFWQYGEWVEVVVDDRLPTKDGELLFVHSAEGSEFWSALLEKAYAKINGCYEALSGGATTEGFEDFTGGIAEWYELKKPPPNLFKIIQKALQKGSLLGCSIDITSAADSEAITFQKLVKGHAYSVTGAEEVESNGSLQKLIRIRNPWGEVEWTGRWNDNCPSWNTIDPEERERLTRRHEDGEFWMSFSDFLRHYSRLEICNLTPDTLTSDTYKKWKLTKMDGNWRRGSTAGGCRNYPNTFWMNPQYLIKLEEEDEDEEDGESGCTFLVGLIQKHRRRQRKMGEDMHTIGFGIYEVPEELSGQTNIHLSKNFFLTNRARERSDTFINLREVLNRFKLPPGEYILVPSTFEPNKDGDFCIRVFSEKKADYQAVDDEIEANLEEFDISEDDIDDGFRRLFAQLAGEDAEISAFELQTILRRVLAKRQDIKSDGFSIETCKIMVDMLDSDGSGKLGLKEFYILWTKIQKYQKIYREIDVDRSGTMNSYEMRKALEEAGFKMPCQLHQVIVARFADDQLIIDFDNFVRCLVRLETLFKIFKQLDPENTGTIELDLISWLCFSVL
T3 sequence (P04632 1-268 partner): T1 sequence (P04632 1-268 partner)
In short: as §1

[3] = A23187-induced SBDP-150, western blot
[4] = Column D, A23187-induced SBDP-150

SMILES	IC50 [1, 3] [µM]	IC50 (Human Calpain 9/NS1) [µM]	IC50 [2] [µM]	IC50 (Human Calpain 1/NS1) [µM]	IC50 (Human Calpain 2/NS1) [µM]	IC50 [1, 4] [µM]	IC50 (Human Calpain 9/NS1; Column C) [µM]	IC50 ([2]; Column E) [µM]	IC50 (Human Calpain 1/NS1; Column A) [µM]	IC50 (Human Calpain 2/NS1; Column B) [µM]
Cn1cc(C(=O)N[C@@H](Cc2c[nH]c3ccccc23)C(=O)C(N)=O)c(-c2ccccc2)n1 [Compound 423, (S)—N-(4-amino-1-(1H-indol-3-yl)-3,4-dioxobutan-2-yl)-1-methyl-3-phenyl-1H-pyrazole-4-carboxamide]	< 10	< 3	< 10	< 3	< 3	–	–	–	–	–
Cc1c(F)cccc1-c1nsnc1C(=O)NC(Cc1ccccc1)C(=O)C(N)=O (stereo not shown) [Compound 375, N-(4-amino-3,4-dioxo-1-phenylbutan-2-yl)-4-(3-fluoro-2-methylphenyl)-1,2,5-thiadiazole-3-carboxamide]	< 10	< 3	< 10	< 3	< 3	–	–	–	–	–
Cc1cc(C(=O)N[C@@H](Cc2ccccc2)C(=O)C(N)=O)n(-c2ccc(S(C)(=O)=O)cc2)n1 [Compound 17, (S)—N-(4-amino-3,4-dioxo-1-phenylbutan-2-yl)-3-methyl-1-(4-(methylsulfonyl)phenyl)-1H-pyrazole-5-carboxamide]	–	–	–	–	–	< 10	< 3	> 25	< 3	< 3
Cn1cc(C(=O)NC(Cc2ccccc2)C(=O)C(N)=O)c(C2CCCCC2)n1 (stereo not shown) [Compound 573, N-(4-amino-3,4-dioxo-1-phenylbutan-2-yl)-3-cyclohexyl-1-methyl-1H-pyrazole-4-carboxamide]	> 25	< 3	< 10	< 3	< 3	–	–	–	–	–
Cc1ccc(F)c(-c2oncc2C(=O)NC(Cc2ccccc2)C(=O)C(N)=O)c1 (stereo not shown) [Compound 549, N-(4-amino-3,4-dioxo-1-phenylbutan-2-yl)-5-(2-fluoro-5-methylphenyl)isoxazole-4-carboxamide]	> 25	< 3	< 10	< 3	< 3	–	–	–	–	–
Cc1cc(C(=O)NC(Cc2ccccc2)C(=O)C(N)=O)n(-c2ccc(C(F)(F)F)cn2)n1 (stereo not shown) [Compound 445, N-(4-amino-3,4-dioxo-1-phenylbutan-2-yl)-3-methyl-1-(5-(trifluoromethyl)pyridin-2-yl)-1H-pyrazole-5-carboxamide]	< 10	< 3	> 25	< 3	< 3	–	–	–	–	–
Cn1nc(Cl)c(C(=O)NC(Cc2ccccc2)C(=O)C(N)=O)c1Cl (stereo not shown) [Compound 282, N-(4-amino-3,4-dioxo-1-phenylbutan-2-yl)-3,5-dichloro-1-methyl-1H-pyrazole-4-carboxamide]	–	–	–	–	–	10 to 25	< 3	< 10	< 3	< 3
Cc1cc(C(=O)NC(Cc2ccccc2)C(=O)C(N)=O)n(-c2ccc(Oc3ccccc3)cc2)n1 (stereo not shown) [Compound 439, N-(4-Amino-3,4-dioxo-1-phenylbutan-2-yl)-3-methyl-1-(4-phenoxyphenyl)-1H-pyrazole-5-carboxamide]	< 10	< 3	> 25	< 3	< 3	–	–	–	–	–
NC(=O)C(=O)C(Cc1ccccc1)NC(=O)c1nsnc1-c1ccc2c(c1)C(=O)N(Cc1ccccc1)C2 (stereo not shown) [Compound 378, N-(4-amino-3,4-dioxo-1-phenylbutan-2-yl)-4-(2-benzyl-3-oxoisoindolin-5-yl)-1,2,5-thiadiazole-3-carboxamide]	< 10	< 3	> 25	< 3	< 3	–	–	–	–	–
Cc1nc(-c2ccc(F)cc2)c(C(=O)N[C@@H](Cc2ccccc2)C(=O)C(N)=O)o1 [Compound 248, (S)—N-(4-amino-3,4-dioxo-1-phenylbutan-2-yl)-4-(4-fluorophenyl)-2-methyloxazole-5-carboxamide]	–	–	–	–	–	< 10	< 3	< 10	< 3	< 3
NC(=O)C(=O)C(Cc1ccccc1)NC(=O)c1cn(C(F)(F)F)nc1-c1ccccc1 (stereo not shown) [Compound 489, N-(4-amino-3,4-dioxo-1-phenylbutan-2-yl)-3-phenyl-1-(trifluoromethyl)-1H-pyrazole-4-carboxamide]	10 to 25	< 3	10 to 25	< 3	< 3	–	–	–	–	–
NC(=O)C(=O)[C@H](Cc1ccccc1)NC(=O)c1conc1-c1ccccn1 [Compound 288, (S)—N-(4-amino-3,4-dioxo-1-phenylbutan-2-yl)-3-(pyridin-2-yl)isoxazole-4-carboxamide]	–	–	–	–	–	> 25	< 3	> 25	< 3	< 3
NC(=O)C(=O)C(Cc1ccccc1)NC(=O)c1cn(C(F)F)nc1-c1cccc2ccccc12 (stereo not shown) [Compound 547, N-(4-amino-3,4-dioxo-1-phenylbutan-2-yl)-1-(difluoromethyl)-3-(naphthalen-1-yl)-1H-pyrazole-4-carboxamide]	< 10	< 3	< 10	< 3	< 3	–	–	–	–	–
CCN(CC)Cc1ccc(Oc2ccc(-n3nc(C)cc3C(=O)NC(Cc3ccccc3)C(=O)C(N)=O)cc2)cc1 (stereo not shown) [Compound 441, N-(4-amino-3,4-dioxo-1-phenylbutan-2-yl)-1-(4-(4-((diethylamino)methyl)phenoxy)phenyl)-3-methyl-1H-pyrazole-5-carboxamide hydrochloride]	> 25	> 10	> 25	> 10	> 10	–	–	–	–	–
